What was measured:
[1] = test system: A549 (human lung cancer cell line); experiment: MTT antiproliferative assay, A549; assay type: cell-based; details: for IC50: Homo sapiens, A549, MTT, 72 h
Description: (§1) All the synthesized compounds were screened for in vitro antiproliferative activity against four human cancer cell lines A549 (human lung cancer cell line), KB (human oral epidermoid carcinoma cell line), Hela (human cervical carcinoma cell line), MCF-7 (human breast cancer cell line) and two human normal cell lines HUVEC (human umbilical vein endothelial cell) and LO2 (human normal hepatocytes) through the 3-(4,5-dimethyl-2-thiazolyl)-2,5-diphenyl-2-H-tetrazolium bromide (MTT) assay.
(§2) Non-small-cell lung cancer (A549), oral epidermoid carcinoma (KB), cervical cancer (Hela) and breast cancer (MCF-7) cells were purchased from the American Type Culture Collection (ATCC, America). Human umbilical vein endothelial cell (HUVEC) and human normal hepatocytes (LO2) cells were provided by Guangzhou Medical University (Guangzhou, China). A549 and KB cells were cultured in RMPI-1640 medium (Gibco, America). Hela, MCF-7 and LO2 cells were cultured in DMEM medium (Gibco, America). HUVEC cells were cultured in Ham’s F-12K medium (Gibco, America). All the mediums were supplemented with 10% fetal bovine serum (FBS) (BI, State of Israel), 100 U/mL penicillin and 100 μg/mL streptomycin (Gibco, America), and all the cells were incubated in a sterile incubator at 37°C in an environment of 5% CO2. The tested compounds were dissolved in dimethyl sulfoxide (DMSO) at a concentration of 10 mM, and then diluted into different concentration of solutions by culture medium. The final concentration of DMSO was <0.01% (v/v) in all drug treatment groups to avoid the toxicity in the biological system. Untreated cells were used as a blank control and 5-fluorouracil treated cells were used as a positive control.
(§3) The incubated tumor cells were planted into 96-well plates (4×10^3 cells/well). After 24 h, the cells were adherent to the wall and treated with the compound 6e in different concentrations (0.78, 1.56, 3.12, 6.25, 12.50, 25.00, and 50.00 μM) for 72 h. Afterwards, the medium was supplemented with 10 µL MTT solution. After 4 h, the culture medium was removed and 100 µL DMSO was added. The absorbance was determined at the wavelength of 540 nm and 655 nm using a microplate reader (BioTek Epoch, America). The results were collected from three independent experiments. The IC50 was then calculated by using GraphPad Prism Software (version 7.0) and non-linear regression (curve fit).

[2] = test system: HUVEC (human umbilical vein endothelial cell); experiment: MTT antiproliferative assay, HUVEC normal cells; assay type: cell-based; details: 72 h
Description: as §1, §2, §3

[3] = test system: MCF-7 (human breast cancer cell line); experiment: MTT antiproliferative assay, MCF-7; assay type: cell-based; details: MCF7, 72 h
Description: as §1, §2, §3

[4] = test system: Hela (human cervical carcinoma cell line); experiment: MTT antiproliferative assay, Hela; assay type: cell-based; details: 72 h
Description: as §1, §2, §3

[5] = test system: LO2 (human normal hepatocytes); experiment: MTT antiproliferative assay, LO2 normal cells; assay type: cell-based; details: Hepatocyte, 72 h
Description: as §1, §2, §3

[6] = test system: KB (human oral epidermoid carcinoma cell line); experiment: MTT antiproliferative assay, KB; assay type: cell-based; details: Homo sapiens; MTT, 72 h
Description: as §1, §2, §3

[7] = test system: various human cancer cells; set-up: method as in Yan et al., 2022; details: ref Yan et al., 2022; read-out: IC50 values, anti-proliferative activities towards various human cancer cells; cited from earlier work

| IC50 [1] | IC50 [3] | IC50 [4] | IC50 [6] | melting point | SMILES | IC50 [2] | IC50 [5] | more potent than 5a and 5-FU ([1]; A549 cells, relative to 5a and 5-FU) | IC50 [7] |
| --- | --- | --- | --- | --- | --- | --- | --- | --- | --- |
| 7.41 ± 0.09 µM | 19.2 ± 3.29 µM | 1.37 ± 1.72 µM | 5.75 ± 2.23 µM |  | O=c1[nH]cc(F)c(=O)[nH]1 [5-FU, 5-Fluorouracil, reference compound] | 4.08 ± 0.06 µM | 10.68 ± 0.03 µM |  |  |
| 7.97 ± 0.01 µM | 3.55 ± 0.17 µM | 1.01 ± 0.28 µM | 1.3 ± 0.02 µM | 167 to 169 °C | O=CC=C(Cl)c1cc2ccccc2oc1=O [Compound 5a, 3-Chloro-3-(2-oxo-2H-chromen-3-yl)acrylaldehyde] | 22.8 ± 0.35 µM | 40.34 ± 0.02 µM |  |  |
| > 100 µM | 6.74 ± 0.64 µM | > 100 µM | > 100 µM | 204 to 205 °C | O=CC=C(Cl)c1cc2ccc(O)cc2oc1=O [Compound 5b, 3-Chloro-3-(7-hydroxy-2-oxo-2H-chromen-3-yl)acrylaldehyde] | > 100 µM | > 100 µM |  |  |
| 7.51 ± 0.02 µM | 18.99 ± 0.18 µM | 4.85 ± 0.19 µM | 3.15 ± 0.09 µM | 206 to 208 °C | CCN(CC)c1ccc2cc(C(Cl)=CC=O)c(=O)oc2c1 [Compound 5c, 3-Chloro-3-(7-(diethylamino)-2-oxo-2H-chromen-3-yl)acrylaldehyde] | 6.42 ± 0.51 µM | 52.65 ± 0.07 µM |  |  |
| 0.7 ± 0.05 µM | 4.23 ± 0.15 µM | 1.36 ± 0.43 µM | 1.12 ± 0.03 µM | 182 to 183 °C | O=CC=C(Cl)c1cc2ccc(Br)cc2oc1=O [Compound 5d, 3-(7-Bromo-2-oxo-2H-chromen-3-yl)-3-chloroacrylaldehyde] | 10.52 ± 0.02 µM | 42.97 ± 0.04 µM | 10 fold |  |
| 6.67 ± 0.01 µM | 8.71 ± 0.31 µM | > 100 µM | 3.23 ± 0.3 µM | 250 to 252 °C | O=CC=C(Cl)c1cc2cc(O)ccc2oc1=O [Compound 5e, 3-Chloro-3-(6-hydroxy-2-oxo-2H-chromen-3-yl)acrylaldehyde] | 34.84 ± 0.11 µM | 14.11 ± 0.04 µM |  |  |
| 4.57 ± 0.01 µM | 20.1 ± 0.32 µM | 3.82 ± 0.11 µM | 2.22 ± 0.04 µM | 179 to 181 °C | Cc1ccc2oc(=O)c(C(Cl)=CC=O)cc2c1 [Compound 5f, 3-Chloro-3-(6-methyl-2-oxo-2H-chromen-3-yl)acrylaldehyde] | 27.38 ± 0.24 µM | 25.01 ± 0.03 µM |  |  |
| 2.45 ± 0.01 µM | 9.25 ± 0.1 µM | 13.4 ± 0.22 µM | 0.87 ± 0.01 µM | 199 to 201 °C | O=CC=C(Cl)c1cc2cc(Br)ccc2oc1=O [Compound 5g, 3-(6-Bromo-2-oxo-2H-chromen-3-yl)-3-chloroacrylaldehyde] | 10.9 ± 0.02 µM | 66.36 ± 0.09 µM |  |  |
| 2.78 ± 0.01 µM | 12.4 ± 0.49 µM | > 100 µM | 3.41 ± 0.4 µM | 202 to 203 °C | COc1ccc2cc(C(Cl)=CC=O)c(=O)oc2c1 [Compound 6a, 3-Chloro-3-(7-methoxy-2-oxo-2H-chromen-3-yl)acrylaldehyde] | 10.09 ± 0.07 µM | 61.04 ± 0.03 µM |  |  |
| 11.34 ± 0.07 µM | 23.29 ± 0.2 µM | 2.91 ± 0.17 µM | > 100 µM | 195 to 196 °C | CCOc1ccc2cc(C(Cl)=CC=O)c(=O)oc2c1 [Compound 6b, 3-Chloro-3-(7-ethoxy-2-oxo-2H-chromen-3-yl)acrylaldehyde] | > 100 µM | > 100 µM |  |  |
| 6.28 ± 0.04 µM | 1.73 ± 0.01 µM | > 100 µM | 4.54 ± 0.11 µM | 150 to 152 °C | CCCOc1ccc2cc(C(Cl)=CC=O)c(=O)oc2c1 [Compound 6c, 3-Chloro-3-(2-oxo-7-propoxy-2H-chromen-3-yl)acrylaldehyde] | 53.92 ± 0.46 µM | 43.52 ± 0.03 µM |  |  |
| 5.61 ± 0.01 µM | 51.63 ± 0.13 µM | 22.7 ± 0.21 µM | 4.28 ± 0.02 µM | 149 to 151 °C | CC(C)Oc1ccc2cc(C(Cl)=CC=O)c(=O)oc2c1 [Compound 6d, 3-Chloro-3-(7-isopropoxy-2-oxo-2H-chromen-3-yl)acrylaldehyde] | 31.92 ± 0.07 µM | 33.27 ± 0.02 µM |  |  |
| > 100 µM | > 100 µM | > 100 µM | > 100 µM | 250 to 252 °C | O=CC=C(Cl)c1cc2ccc(OCc3ccc([N+](=O)[O-])cc3)cc2oc1=O [Compound 6f, 3-Chloro-3-(7-((4-nitrobenzyl)oxy)-2-oxo-2H-chromen-3-yl)acrylaldehyde] | > 100 µM | > 100 µM |  |  |
| > 100 µM | 5.13 ± 0.07 µM | > 100 µM | > 100 µM | 217 to 219 °C | O=CC=C(Cl)c1cc2ccc(OCc3cccc(Br)c3)cc2oc1=O [Compound 6g, 3-(7-((3-Bromobenzyl)oxy)-2-oxo-2H-chromen-3-yl)-3-chloroacrylaldehyde] | > 100 µM | > 100 µM |  |  |
|  |  |  |  |  | COc1ccc2c(/C=C(\C)C(=O)c3cc(OC)c(OC)c([Se]C)c3)c[nH]c2c1 [compound J] |  |  |  | 0.008 to 0.035 µM |

— paper PMC10076643, “Design, synthesis and anticancer activity studies of 3-(coumarin-3-yl)-acrolein derivatives: Evidenced by integrating network pharmacology and vitro assay” (Frontiers in Pharmacology, 2023)
